Source: patent publication US12570642B2, “GLP-IR modulating compounds” (Gilead Sciences, Inc., priority 2021, dated 2026)
pEC50: −log10 of the molar value.

Biological target: GLP-1R (Homo sapiens, UniProt P43220)
Assay: GLP-1R Activation - cAMP Assay
Format: cell-based
Conditions: each compound run on one of the two cAMP assays (Assay 1 or Assay 2, not specified)
Method in brief: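 cAMP rise read by HTRF after 30 min agonist exposure (10-point titration, 37 °C) in HBSS/20 mM Hepes/0.1% BSA, following 1 h pre-incubation. Cells: stable GLP-1R CHO line, 1,000/well, seeded overnight. Sigmoidal fit of response vs log concentration gives EC50.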

[1] = cAMP increase in CHO cells stably expressing GLP-1R

Sequence of GLP-1R (P43220 24-463): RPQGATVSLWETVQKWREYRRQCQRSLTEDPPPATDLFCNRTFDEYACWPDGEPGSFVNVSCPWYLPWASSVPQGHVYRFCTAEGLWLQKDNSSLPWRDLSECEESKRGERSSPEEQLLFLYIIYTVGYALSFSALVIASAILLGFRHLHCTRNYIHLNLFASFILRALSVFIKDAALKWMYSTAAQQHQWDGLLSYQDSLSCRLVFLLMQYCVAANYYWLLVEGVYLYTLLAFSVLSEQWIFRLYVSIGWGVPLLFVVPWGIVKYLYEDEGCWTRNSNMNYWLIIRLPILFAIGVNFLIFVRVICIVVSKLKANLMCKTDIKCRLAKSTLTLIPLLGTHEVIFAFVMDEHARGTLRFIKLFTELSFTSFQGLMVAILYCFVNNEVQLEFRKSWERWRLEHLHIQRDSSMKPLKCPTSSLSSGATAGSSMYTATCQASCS

Compound	pEC50 [1]	pEC50 ([…])
CC1(C)COC[C@H]1n1c(Cc2ccc(-c3ccc(F)c(OCc4ccc(C#N)cc4)n3)cc2F)nc2c(F)cc(C(=O)O)cc21 [Example 308, (S)-2-(4-(6-((4-cyanobenzyl)oxy)-5-fluoropyridin-2-yl)-2-fluorobenzyl)-1-(4,4-dimethyltetrahydrofuran-3-yl)-4-fluoro-1H-benzo[d]imidazole-6-carboxylic acid]	9.74	–
COC(=O)N1C[C@H](OC)[C@H](n2c(Cc3cc(F)c(-c4cccc(OCc5ccc(C#N)cc5F)n4)cc3F)nc3ccc(C(=O)O)cc32)C1 [Example 85]	–	5.84
CC1(C)COC[C@H]1n1c(Cc2ccc(-c3ccc(F)c(OCc4ccc(-n5ccnn5)cc4F)n3)cc2F)nc2ccc(C(=O)O)cc21 [Example 236, (S)-1-(4,4-dimethyltetrahydrofuran-3-yl)-2-(2-fluoro-4-(5-fluoro-6-((2-fluoro-4-(1H-1,2,3-triazol-1-yl)benzyl)oxy)pyridin-2-yl)benzyl)-1H-benzo[d]imidazole-6-carboxylic acid]	9.69	–
CC1(C)COC[C@H]1n1c(Cc2cc(F)c(-c3ccnc(OCc4ccc(Cl)cc4)n3)cc2F)nc2c(F)cc(C(=O)O)cc21 [Example 230, (S)-2-(4-(2-((4-chlorobenzyl)oxy)pyrimidin-4-yl)-2,5-difluorobenzyl)-1-(4,4-dimethyltetrahydrofuran-3-yl)-4-fluoro-1H-benzo[d]imidazole-6-carboxylic acid]	10.47	–
CC1(C)COC[C@H]1n1c(Cc2cc(F)c(-c3ccc(F)c(OCc4ccc(C(F)(F)F)cc4)n3)cc2F)nc2ccc(C(=O)O)cc21 [Example 536, (S)-2-(2,5-difluoro-4-(5-fluoro-6-((4-(trifluoromethyl)benzyl)oxy)pyridin-2-yl)benzyl)-1-(4,4-dimethyltetrahydrofuran-3-yl)-1H-benzo[d]imidazole-6-carboxylic acid]	10.08	–
COCCn1c(Cc2cc(F)c(-c3cccc(OCc4ccc(-c5cnn(C(F)F)c5)cc4F)n3)cc2F)nc2ccc(C(=O)O)cc21 [Example 100, 2-(4-(6-((4-(1-(difluoromethyl)-1H-pyrazol-4-yl)-2-fluorobenzyl)oxy)pyridin-2-yl)-2,5-difluorobenzyl)-1-(2-methoxyethyl)-1H-benzo[d]imidazole-6-carboxylic Acid]	9.35	–
N#Cc1ccc(COc2cccc(-c3cc(F)c(Cc4nc5ccc(C(=O)O)cc5n4[C@@H]4COC[C@@H]4OCC(F)F)cc3F)n2)c(F)c1 (racemic) [Example 412, 2-(4-(6-((4-cyano-2-fluorobenzyl)oxy)pyridin-2-yl)-2,5-difluorobenzyl)-1-((3R,4R)-4-(2,2-difluoroethoxy)tetrahydrofuran-3-yl)-1H-benzo[d]imidazole-6-carboxylic acid]	9.34	–
COc1cc(Cl)ncc1COc1nc(-c2cc(Cl)c(Cc3nc4ccc(C(=O)O)cc4n3[C@@H]3COCC3(C)C)cc2C)ccc1F [Example 323, (S)-2-(2-chloro-4-(6-((6-chloro-4-methoxypyridin-3-yl)methoxy)-5-fluoropyridin-2-yl)-5-methylbenzyl)-1-(4,4-dimethyltetrahydrofuran-3-yl)-1H-benzo[d]imidazole-6-carboxylic acid]	9.13	–
COc1cnccc1COc1cccc(-c2cc(F)c(Cc3nc4ccc(C(=O)O)cc4n3[C@@H]3COCC3(C)C)cc2F)n1 [Example 430, (S)-2-(2,5-difluoro-4-(6-((3-methoxypyridin-4-yl)methoxy)pyridin-2-yl)benzyl)-1-(4,4-dimethyltetrahydrofuran-3-yl)-1H-benzo[d]imidazole-6-carboxylic acid]	10.70	–
C[C@H]1OCC[C@H]1n1c(Cc2cc(F)c(-c3cccc(OCc4ccc(C#N)cc4F)n3)cc2F)nc2ccc(C(=O)O)cc21 (racemic) [Example 73, 2-(4-(6-((4-cyano-2-fluorobenzyl)oxy)pyridin-2-yl)-2,5-difluorobenzyl)-1-((2R,3R)-2-methyltetrahydrofuran-3-yl)-1H-benzo[d]imidazole-6-carboxylic Acid]	8.62	–
N#Cc1ccc(COc2cccc(-c3cc(F)c(Cc4nc5ccc(C(=O)O)cc5n4C4CCOCC45CC5)cc3F)n2)c(F)c1 (stereo not shown) [Example 82, 2-(4-(6-((4-cyano-2-fluorobenzyl)oxy)pyridin-2-yl)-2,5-difluorobenzyl)-1-(5-oxaspiro[2.5]octan-8-yl)-1H-benzo[d]imidazole-6-carboxylic Acid]	8.80	–
CC1(C)COC[C@H]1n1c(Cc2cc(F)c(-c3cccc(OCc4ccc(C(F)F)cc4F)n3)cc2F)nc2ccc(C(=O)O)cc21 (single isomer, unassigned) [Example 383A]	9.13	–
COCCn1c(Cc2cc(F)c(-c3cccc(OCc4ccc(-c5cccnc5C)cc4F)n3)cc2F)nc2ccc(C(=O)O)cc21 [Example 104, 2-(2,5-difluoro-4-(6-((2-fluoro-4-(2-methylpyridin-3-yl)benzyl)oxy)pyridin-2-yl)benzyl)-1-(2-methoxyethyl)-1H-benzo[d]imidazole-6-carboxylic Acid]	7.38	–
CC1(C)COC[C@H]1n1c(Cc2cc(F)c(-c3cccc(OCc4ccc(Cl)cc4F)n3)cc2F)nc2ccc(C(=O)O)nc21 [Example 437, (S)-2-(4-(6-((4-chloro-2-fluorobenzyl)oxy)pyridin-2-yl)-2,5-difluorobenzyl)-3-(4,4-dimethyltetrahydrofuran-3-yl)-3H-imidazo[4,5-b]pyridine-5-carboxylic acid]	9.19	–
N#Cc1ccc(COc2cccc(-c3cc(F)c(Cc4nc5ccc(C(=O)O)cc5n4[C@@H]4COC[C@@H]4OC4CC4)cc3F)n2)c(F)c1 (racemic) [Example 411, 2-(4-(6-((4-cyano-2-fluorobenzyl)oxy)pyridin-2-yl)-2,5-difluorobenzyl)-1-((3R,4R)-4-cyclopropoxytetrahydrofuran-3-yl)-1H-benzo[d]imidazole-6-carboxylic acid]	8.88	–
CC1(C)COC[C@H]1n1c(Cc2cc(F)c(-c3cccc(OCc4ccc(Cl)cc4C#N)n3)cc2F)nc2ccc(C(=O)O)cc21 [Example 449, (S)-2-(4-(6-((4-chloro-2-cyanobenzyl)oxy)pyridin-2-yl)-2,5-difluorobenzyl)-1-(4,4-dimethyltetrahydrofuran-3-yl)-1H-benzo[d]imidazole-6-carboxylic acid]	10.68	–
CO[C@H]1COC[C@H]1n1c(Cc2cc(F)c(-c3ccc(F)c(OCc4ccc(Cl)cc4F)n3)cc2F)nc2ccc(C(=O)O)cc21 [Example 534, 2-(4-(6-((4-chloro-2-fluorobenzyl)oxy)-5-fluoropyridin-2-yl)-2,5-difluorobenzyl)-1-((3R,4R)-4-methoxytetrahydrofuran-3-yl)-1H-benzo[d]imidazole-6-carboxylic acid]	9.45	–
COc1cc(C#N)ccc1COc1cccc(-c2cc(F)c(Cc3nc4ccc(C(=O)O)cc4n3[C@@H]3COCC3(C)C)cc2F)n1 [Example 461, (S)-2-(4-(6-((4-cyano-2-methoxybenzyl)oxy)pyridin-2-yl)-2,5-difluorobenzyl)-1-(4,4-dimethyltetrahydrofuran-3-yl)-1H-benzo[d]imidazole-6-carboxylic acid]	10.17	–
COCCn1c(Cc2cc(F)c(-c3cccc(OCc4cc(F)c(F)cc4F)n3)cc2F)nc2ccc(C(=O)O)cc21 [Example 27, 2-(2,5-difluoro-4-(6-((2,4,5-trifluorobenzyl)oxy)pyridin-2-yl)benzyl)-1-(2-methoxyethyl)-1H-benzo[d]imidazole-6-carboxylic Acid]	7.88	–
CS(=O)(=O)N1Cc2ccc(COc3cccc(-c4cc(F)c(Cc5nc6ccc(C(=O)O)cc6n5C[C@@H]5CCO5)cc4F)n3)cc2C1 [Example 519, (S)-2-(2,5-difluoro-4-(6-((2-(methylsulfonyl)isoindolin-5-yl)methoxy)pyridin-2-yl)benzyl)-1-(oxetan-2-ylmethyl)-1H-benzo[d]imidazole-6-carboxylic acid]	9.99	–
COC[C@H]1COC[C@H]1n1c(Cc2cc(F)c(-c3cccc(OCc4ccc(Cl)cc4)n3)cc2F)nc2ccc(C(=O)O)cc21 [Example 544, 2-(4-(6-((4-chlorobenzyl)oxy)pyridin-2-yl)-2,5-difluorobenzyl)-1-((3S,4S)-4-(methoxymethyl)tetrahydrofuran-3-yl)-1H-benzo[d]imidazole-6-carboxylic acid]	10.32	–
CC1(C)COC[C@H]1n1c(Cc2cc(F)c(-c3cccc(OCc4ccc(F)cc4)n3)cc2F)nc2ccc(C(=O)O)cc21 [Example 360, (S)-2-(2,5-difluoro-4-(6-((4-fluorobenzyl)oxy)pyridin-2-yl)benzyl)-1-(4,4-dimethyltetrahydrofuran-3-yl)-1H-benzo[d]imidazole-6-carboxylic acid]	10.10	–
CO[C@@H]1COCC1n1c(Cc2cc(F)c(-c3cccc(OCc4ccc(C#N)cc4F)n3)cc2F)nc2c(F)cc(C(=O)O)cc21 (single isomer, unassigned) [Example 239]	10.40	–
COC(=O)N1Cc2ccc(COc3nc(-c4cc(F)c(Cc5nc6ccc(C(=O)O)cc6n5C[C@@H]5CCO5)cc4F)ccc3F)cc2C1 [Example 516, (S)-2-(2,5-difluoro-4-(5-fluoro-6-((2-(methoxycarbonyl)isoindolin-5-yl)methoxy)pyridin-2-yl)benzyl)-1-(oxetan-2-ylmethyl)-1H-benzo[d]imidazole-6-carboxylic acid]	10.06	–
COc1cc(Cl)ncc1COc1nc(-c2cc(F)c(Cc3nc4c(F)cc(C(=O)O)cc4n3[C@@H]3COCC3(C)C)c(F)c2F)ccc1F [Example 339, (S)-2-(4-(6-((6-chloro-4-methoxypyridin-3-yl)methoxy)-5-fluoropyridin-2-yl)-2,3,6-trifluorobenzyl)-1-(4,4-dimethyltetrahydrofuran-3-yl)-4-fluoro-1H-benzo[d]imidazole-6-carboxylic acid]	10.89	–
